Data as given in article PMC9532703, “A novel small molecule RK-019 inhibits FGFR2-amplification gastric cancer cell proliferation and induces apoptosis in vitro and in vivo” (Frontiers in Pharmacology, 2022).

Key:
Test in all cases: Kinase selectivity panel
Assay type in all cases: biochemical
[1] = target: T1, ARK5(h) (Homo sapiens, UniProt O60285); details: read-out: Inhibition(%) @ 1 µM RK-019
T1 construct: purchased Eurofins Discovery Services (KinaseProfiler)
Outline: (§1)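 The compound is tested at a fixed 1 µM in an in vitro binding assay based on competition at the ATP site of recombinant human kinase. Inhibition ratio is reported.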

[2] = target: T2, Ret(h) (Homo sapiens, UniProt P07949)
T2 construct: purchased Eurofins Discovery Services (KinaseProfiler)
Outline: as §1

[3] = target: T3, PDGFRα(V561D)(h) (Homo sapiens, UniProt P16234, V561D); details: read-out: Inhibition(%) @ 1 µM RK-019
T3 construct: purchased Eurofins Discovery Services (KinaseProfiler)
Outline: as §1

[4] = target: T4, DAPK2(h) (Homo sapiens, UniProt Q9UIK4); details: read-out: Inhibition(%) @ 1 µM RK-019
T4 construct: purchased Eurofins Discovery Services (KinaseProfiler)
Outline: as §1

[5] = target: T5, MRCKγ(h) (Homo sapiens, UniProt Q6DT37); details: read-out: Inhibition(%) @ 1 µM RK-019
T5 construct: purchased Eurofins Discovery Services (KinaseProfiler)
Outline: as §1

[6] = target: T6, PKBβ(h) (Homo sapiens, UniProt P31751); details: read-out: Inhibition(%) @ 1 µM RK-019
T6 construct: purchased Eurofins Discovery Services (KinaseProfiler)
Outline: as §1

[7] = target: T7, Met(Y1248D)(h) (Homo sapiens, UniProt P08581, Y1230D); details: read-out: Inhibition(%) @ 1 µM RK-019
T7 construct: purchased Eurofins Discovery Services (KinaseProfiler)
Outline: as §1

[8] = target: T8, Fyn(h) (Homo sapiens, UniProt P06241); details: read-out: Inhibition(%) @ 1 µM RK-019
T8 construct: purchased Eurofins Discovery Services (KinaseProfiler)
Outline: as §1

[9] = target: T9, MSK1(h) (Homo sapiens, UniProt O75582); details: read-out: Inhibition(%) @ 1 µM RK-019
T9 construct: purchased Eurofins Discovery Services (KinaseProfiler)
Outline: as §1

[10] = target: T10, CK1γ3(h) (Homo sapiens, UniProt Q9Y6M4); details: read-out: Inhibition(%) @ 1 µM RK-019
T10 construct: purchased Eurofins Discovery Services (KinaseProfiler)
Outline: as §1

[11] = target: T11, EphA5(h) (Homo sapiens, UniProt P54756); details: read-out: Inhibition(%) @ 1 µM RK-019
T11 construct: purchased Eurofins Discovery Services (KinaseProfiler)
Outline: as §1

[12] = target: T12, SNRK(h) (Homo sapiens, UniProt Q9NRH2); details: read-out: Inhibition(%) @ 1 µM RK-019
T12 construct: purchased Eurofins Discovery Services (KinaseProfiler)
Outline: as §1

[13] = target: T13, GRK2(h) (Homo sapiens, UniProt P25098); details: read-out: Inhibition(%) @ 1 µM RK-019
T13 construct: purchased Eurofins Discovery Services (KinaseProfiler)
Outline: as §1

[14] = target: T14, FAK(h) (Homo sapiens, UniProt Q05397); details: read-out: Inhibition(%) @ 1 µM RK-019
T14 construct: purchased Eurofins Discovery Services (KinaseProfiler)
Outline: as §1

[15] = target: T15, Tie2(R849W)(h) (Homo sapiens, UniProt Q02763, R849W); details: read-out: Inhibition(%) @ 1 µM RK-019
T15 construct: purchased Eurofins Discovery Services (KinaseProfiler)
Outline: as §1

[16] = target: T16, MRCKβ(h) (Homo sapiens, UniProt Q9Y5S2); details: read-out: Inhibition(%) @ 1 µM RK-019
T16 construct: purchased Eurofins Discovery Services (KinaseProfiler)
Outline: as §1

[17] = target: T17, FGFR2(h) (Homo sapiens, UniProt P21802)
T17 construct: purchased Eurofins Discovery Services (KinaseProfiler)
Outline: as §1

[18] = target: T18, EphB3(h) (Homo sapiens, UniProt P54753); details: read-out: Inhibition(%) @ 1 µM RK-019
T18 construct: purchased Eurofins Discovery Services (KinaseProfiler)
Outline: as §1

[19] = target: T19, STK33(h) (Homo sapiens, UniProt Q9BYT3); details: read-out: Inhibition(%) @ 1 µM RK-019
T19 construct: purchased Eurofins Discovery Services (KinaseProfiler)
Outline: as §1

[20] = target: T20, STK16(h) (Homo sapiens, UniProt O75716); details: read-out: Inhibition(%) @ 1 µM RK-019
T20 construct: purchased Eurofins Discovery Services (KinaseProfiler)
Outline: as §1

[21] = target: T21, CHK2(h) (Homo sapiens, UniProt O96017); details: read-out: Inhibition(%) @ 1 µM RK-019
T21 construct: purchased Eurofins Discovery Services (KinaseProfiler)
Outline: as §1

[22] = target: T22, IGF-1R(h), activated (Homo sapiens, UniProt P08069); details: read-out: Inhibition(%) @ 1 µM RK-019
T22 construct: purchased Eurofins Discovery Services (KinaseProfiler)
Outline: as §1

[23] = target: T23, BRK(h) (Homo sapiens, UniProt Q13882); details: read-out: Inhibition(%) @ 1 µM RK-019
T23 construct: purchased Eurofins Discovery Services (KinaseProfiler)
Outline: as §1

[24] = target: T24, Abl (M351T)(h) (Homo sapiens, UniProt P00519, M351T); details: read-out: Inhibition(%) @ 1 µM RK-019
T24 construct: purchased Eurofins Discovery Services (KinaseProfiler)
Outline: as §1

[25] = target: T25, PKCε(h) (Homo sapiens, UniProt Q02156); details: read-out: Inhibition(%) @ 1 µM RK-019
T25 construct: purchased Eurofins Discovery Services (KinaseProfiler)
Outline: as §1

[26] = target: T26, Met(D1246H)(h) (Homo sapiens, UniProt P08581, D1228H); details: read-out: Inhibition(%) @ 1 µM RK-019
T26 construct: purchased Eurofins Discovery Services (KinaseProfiler)
Outline: as §1

[27] = target: T27, Mnk2(h) (Homo sapiens, UniProt Q9HBH9); details: read-out: Inhibition(%) @ 1 µM RK-019
T27 construct: purchased Eurofins Discovery Services (KinaseProfiler)
Outline: as §1

[28] = target: T28, GRK7(h) (Homo sapiens, UniProt Q8WTQ7); details: read-out: Inhibition(%) @ 1 µM RK-019
T28 construct: purchased Eurofins Discovery Services (KinaseProfiler)
Outline: as §1

[29] = target: T29, Wee1(h) (Homo sapiens, UniProt P30291); details: read-out: Inhibition(%) @ 1 µM RK-019
T29 construct: purchased Eurofins Discovery Services (KinaseProfiler)
Outline: as §1

[30] = target: T30, NEK3(h) (Homo sapiens, UniProt P51956); details: read-out: Inhibition(%) @ 1 µM RK-019
T30 construct: purchased Eurofins Discovery Services (KinaseProfiler)
Outline: as §1

[31] = target: T31, BrSK1(h) (Homo sapiens, UniProt Q8TDC3); details: read-out: Inhibition(%) @ 1 µM RK-019
T31 construct: purchased Eurofins Discovery Services (KinaseProfiler)
Outline: as §1

[32] = target: T32, SRPK1(h) (Homo sapiens, UniProt Q96SB4); details: read-out: Inhibition(%) @ 1 µM RK-019
T32 construct: purchased Eurofins Discovery Services (KinaseProfiler)
Outline: as §1

[33] = target: T33, HIPK3(h) (Homo sapiens, UniProt Q9H422); details: read-out: Inhibition(%) @ 1 µM RK-019
T33 construct: purchased Eurofins Discovery Services (KinaseProfiler)
Outline: as §1

[34] = target: T34, CDK12/cyclinK(h) (Homo sapiens, UniProt Q9NYV4); details: read-out: Inhibition(%) @ 1 µM RK-019
T34 construct: purchased Eurofins Discovery Services (KinaseProfiler)
Outline: as §1

[35] = target: T35, PRP4(h) (Homo sapiens, UniProt Q13523); details: read-out: Inhibition(%) @ 1 µM RK-019
T35 construct: purchased Eurofins Discovery Services (KinaseProfiler)
Outline: as §1

[36] = target: T36, MAPKAP-K3(h) (Homo sapiens, UniProt Q16644); details: read-out: Inhibition(%) @ 1 µM RK-019
T36 construct: purchased Eurofins Discovery Services (KinaseProfiler)
Outline: as §1

T2 sequence (P07949 29-1114): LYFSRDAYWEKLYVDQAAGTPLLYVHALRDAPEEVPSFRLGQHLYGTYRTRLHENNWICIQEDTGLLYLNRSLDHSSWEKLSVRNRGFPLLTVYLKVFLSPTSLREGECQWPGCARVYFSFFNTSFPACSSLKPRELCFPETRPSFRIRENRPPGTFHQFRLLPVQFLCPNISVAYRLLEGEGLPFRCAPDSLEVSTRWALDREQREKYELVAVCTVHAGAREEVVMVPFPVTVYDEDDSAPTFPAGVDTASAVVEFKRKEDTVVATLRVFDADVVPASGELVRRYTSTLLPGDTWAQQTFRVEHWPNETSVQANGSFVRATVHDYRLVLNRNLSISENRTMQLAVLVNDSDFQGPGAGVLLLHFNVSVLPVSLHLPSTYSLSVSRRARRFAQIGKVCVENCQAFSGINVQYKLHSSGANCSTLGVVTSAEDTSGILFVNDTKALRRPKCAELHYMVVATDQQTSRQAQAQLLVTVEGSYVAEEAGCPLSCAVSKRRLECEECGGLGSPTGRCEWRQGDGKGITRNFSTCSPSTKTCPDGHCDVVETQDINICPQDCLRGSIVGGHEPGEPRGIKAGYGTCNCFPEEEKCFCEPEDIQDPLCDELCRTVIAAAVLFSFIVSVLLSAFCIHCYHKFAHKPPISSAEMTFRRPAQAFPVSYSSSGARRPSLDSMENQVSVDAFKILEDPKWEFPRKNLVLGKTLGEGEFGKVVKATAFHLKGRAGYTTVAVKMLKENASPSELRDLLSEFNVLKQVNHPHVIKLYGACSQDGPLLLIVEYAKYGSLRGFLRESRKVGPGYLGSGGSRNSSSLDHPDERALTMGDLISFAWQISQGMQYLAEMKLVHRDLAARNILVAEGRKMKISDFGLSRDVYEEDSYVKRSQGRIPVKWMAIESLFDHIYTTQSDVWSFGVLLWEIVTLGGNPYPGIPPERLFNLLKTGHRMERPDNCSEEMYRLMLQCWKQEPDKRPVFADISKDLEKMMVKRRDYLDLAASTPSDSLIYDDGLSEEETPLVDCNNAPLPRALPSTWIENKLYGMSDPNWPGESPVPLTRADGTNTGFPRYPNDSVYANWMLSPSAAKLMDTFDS
T17 sequence (P21802 22-821): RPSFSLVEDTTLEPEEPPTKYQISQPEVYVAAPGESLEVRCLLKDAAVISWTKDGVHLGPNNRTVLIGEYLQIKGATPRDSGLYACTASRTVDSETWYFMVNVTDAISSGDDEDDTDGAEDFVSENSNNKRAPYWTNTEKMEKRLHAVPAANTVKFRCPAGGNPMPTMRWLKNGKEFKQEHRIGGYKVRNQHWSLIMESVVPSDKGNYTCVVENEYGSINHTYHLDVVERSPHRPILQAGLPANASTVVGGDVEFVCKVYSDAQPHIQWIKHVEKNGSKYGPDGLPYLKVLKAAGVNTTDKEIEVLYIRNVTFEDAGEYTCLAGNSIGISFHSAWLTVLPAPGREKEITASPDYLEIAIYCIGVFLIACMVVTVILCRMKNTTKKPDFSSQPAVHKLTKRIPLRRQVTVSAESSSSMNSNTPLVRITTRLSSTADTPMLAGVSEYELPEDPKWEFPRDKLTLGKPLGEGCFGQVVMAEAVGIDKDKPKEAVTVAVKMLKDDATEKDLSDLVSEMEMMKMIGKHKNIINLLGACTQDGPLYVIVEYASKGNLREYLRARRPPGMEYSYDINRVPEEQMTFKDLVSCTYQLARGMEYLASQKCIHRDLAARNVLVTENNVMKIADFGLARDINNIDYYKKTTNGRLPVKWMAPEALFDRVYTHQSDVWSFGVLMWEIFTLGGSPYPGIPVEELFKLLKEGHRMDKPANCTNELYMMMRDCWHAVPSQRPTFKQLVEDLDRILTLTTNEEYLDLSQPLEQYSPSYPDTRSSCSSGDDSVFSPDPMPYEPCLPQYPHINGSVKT
T34 sequence (Q9NYV4 whole entry): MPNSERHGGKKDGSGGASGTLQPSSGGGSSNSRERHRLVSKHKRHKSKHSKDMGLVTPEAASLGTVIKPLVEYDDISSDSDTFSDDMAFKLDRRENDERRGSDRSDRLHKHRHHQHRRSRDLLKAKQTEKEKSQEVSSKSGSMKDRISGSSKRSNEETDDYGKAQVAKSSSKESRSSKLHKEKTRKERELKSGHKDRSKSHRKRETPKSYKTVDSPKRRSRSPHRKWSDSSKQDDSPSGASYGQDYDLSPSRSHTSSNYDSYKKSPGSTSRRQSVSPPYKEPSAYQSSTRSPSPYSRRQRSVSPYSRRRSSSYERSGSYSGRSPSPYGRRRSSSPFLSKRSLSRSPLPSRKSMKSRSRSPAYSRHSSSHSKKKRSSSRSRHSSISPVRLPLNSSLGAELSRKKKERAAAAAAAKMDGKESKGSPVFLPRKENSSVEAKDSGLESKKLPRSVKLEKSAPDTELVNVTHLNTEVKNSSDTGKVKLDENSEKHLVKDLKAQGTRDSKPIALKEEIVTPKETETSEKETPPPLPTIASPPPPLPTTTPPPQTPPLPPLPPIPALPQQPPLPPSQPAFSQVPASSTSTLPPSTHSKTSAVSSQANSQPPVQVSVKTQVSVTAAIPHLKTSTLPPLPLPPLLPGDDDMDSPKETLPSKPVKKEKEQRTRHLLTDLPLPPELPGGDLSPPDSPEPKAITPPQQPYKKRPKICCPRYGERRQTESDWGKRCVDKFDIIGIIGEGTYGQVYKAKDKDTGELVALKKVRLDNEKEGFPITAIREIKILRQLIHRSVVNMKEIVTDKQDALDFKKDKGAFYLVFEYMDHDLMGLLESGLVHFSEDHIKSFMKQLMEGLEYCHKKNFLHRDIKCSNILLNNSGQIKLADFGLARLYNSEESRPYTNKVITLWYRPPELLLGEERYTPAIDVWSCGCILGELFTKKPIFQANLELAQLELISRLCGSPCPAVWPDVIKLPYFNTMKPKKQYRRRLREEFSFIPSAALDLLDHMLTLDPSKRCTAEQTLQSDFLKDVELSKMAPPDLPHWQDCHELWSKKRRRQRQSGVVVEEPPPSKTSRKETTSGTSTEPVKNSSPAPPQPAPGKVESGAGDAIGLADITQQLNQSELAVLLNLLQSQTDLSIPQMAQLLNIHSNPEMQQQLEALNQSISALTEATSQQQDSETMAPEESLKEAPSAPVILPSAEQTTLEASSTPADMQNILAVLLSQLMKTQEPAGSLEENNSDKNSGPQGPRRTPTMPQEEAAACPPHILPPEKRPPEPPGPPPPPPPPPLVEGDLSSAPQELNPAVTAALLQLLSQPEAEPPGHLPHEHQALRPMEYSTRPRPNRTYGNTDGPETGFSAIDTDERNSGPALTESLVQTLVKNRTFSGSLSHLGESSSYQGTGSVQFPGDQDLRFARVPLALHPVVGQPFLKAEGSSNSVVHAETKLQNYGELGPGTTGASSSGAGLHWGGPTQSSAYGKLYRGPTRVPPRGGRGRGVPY
T34 sequence (O75909 whole entry partner): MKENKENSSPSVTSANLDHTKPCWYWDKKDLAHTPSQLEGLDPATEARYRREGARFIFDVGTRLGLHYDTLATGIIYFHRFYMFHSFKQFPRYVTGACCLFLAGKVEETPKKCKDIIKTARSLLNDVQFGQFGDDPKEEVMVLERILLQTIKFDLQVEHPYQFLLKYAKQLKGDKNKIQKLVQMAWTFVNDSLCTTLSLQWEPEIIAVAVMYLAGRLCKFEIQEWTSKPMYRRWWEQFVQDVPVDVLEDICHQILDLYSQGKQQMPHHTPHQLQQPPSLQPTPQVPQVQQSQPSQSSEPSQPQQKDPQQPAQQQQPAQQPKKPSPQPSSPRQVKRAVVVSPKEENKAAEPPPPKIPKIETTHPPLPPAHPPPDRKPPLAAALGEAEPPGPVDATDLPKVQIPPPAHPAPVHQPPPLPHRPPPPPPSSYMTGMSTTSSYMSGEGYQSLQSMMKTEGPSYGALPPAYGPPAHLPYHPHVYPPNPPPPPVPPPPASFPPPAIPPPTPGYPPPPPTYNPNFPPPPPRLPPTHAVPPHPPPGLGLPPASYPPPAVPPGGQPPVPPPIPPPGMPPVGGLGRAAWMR
T14 sequence (Q05397 whole entry): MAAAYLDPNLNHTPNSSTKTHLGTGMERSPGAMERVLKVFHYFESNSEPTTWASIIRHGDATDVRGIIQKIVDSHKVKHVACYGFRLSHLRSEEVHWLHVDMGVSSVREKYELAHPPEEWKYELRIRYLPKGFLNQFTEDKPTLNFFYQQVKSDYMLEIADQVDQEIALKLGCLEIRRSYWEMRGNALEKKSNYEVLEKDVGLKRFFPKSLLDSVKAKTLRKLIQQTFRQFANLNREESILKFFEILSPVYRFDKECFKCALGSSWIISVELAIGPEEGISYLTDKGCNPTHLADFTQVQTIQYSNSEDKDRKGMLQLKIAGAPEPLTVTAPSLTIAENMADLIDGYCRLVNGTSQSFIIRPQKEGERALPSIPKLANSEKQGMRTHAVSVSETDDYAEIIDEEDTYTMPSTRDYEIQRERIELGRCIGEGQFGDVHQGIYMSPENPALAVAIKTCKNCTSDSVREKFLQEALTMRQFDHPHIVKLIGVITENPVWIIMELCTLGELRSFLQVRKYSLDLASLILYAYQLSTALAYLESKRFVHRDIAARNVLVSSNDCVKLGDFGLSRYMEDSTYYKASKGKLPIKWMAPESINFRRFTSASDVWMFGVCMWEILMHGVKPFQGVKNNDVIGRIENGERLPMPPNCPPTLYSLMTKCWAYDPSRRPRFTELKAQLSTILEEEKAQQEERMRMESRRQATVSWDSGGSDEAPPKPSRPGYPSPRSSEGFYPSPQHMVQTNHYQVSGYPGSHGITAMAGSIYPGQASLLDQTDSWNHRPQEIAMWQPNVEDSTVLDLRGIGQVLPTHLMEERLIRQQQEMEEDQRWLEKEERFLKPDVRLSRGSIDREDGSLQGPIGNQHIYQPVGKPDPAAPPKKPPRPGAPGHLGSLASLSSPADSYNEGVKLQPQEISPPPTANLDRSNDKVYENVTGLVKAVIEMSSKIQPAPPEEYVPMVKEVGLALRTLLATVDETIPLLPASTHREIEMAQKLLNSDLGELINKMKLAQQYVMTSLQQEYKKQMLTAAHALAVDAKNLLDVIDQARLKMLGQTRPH

`COc1cc(OC)cc(N(CCN[C@H](C)CO)c2ccc3ncc(-c4cnn(C)c4)c(=O)n3c2)c1` [RK-019, (R)-7-((3,5-dimethoxyphenyl) (2-((1-hydroxypropan-2-yl)amino)ethyl)amino)-3-(1-methyl-1H-pyrazol-4-yl)-4H-pyrido [1,2-a]pyrimidin-4-one] was tested, and the activity at 1 µM [1] was 146%, the inhibition at 1 µM ([2]; RET, 1 µM, read-out: inhibition (hit in panel)) was > 90% and the activity at 1 µM ([2]; Ret(h), read-out: Inhibition(%) @ 1 µM RK-019) was 5%. It also gave an activity at 1 µM [3] of 1%, an activity at 1 µM [4] of 97% and an activity at 1 µM [5] of 94%. The activity at 1 µM [6] was 84%, the activity at 1 µM [7] was 103% and the activity at 1 µM [8] was 62%. The activity at 1 µM [9] was 95%, the activity at 1 µM [10] was 87% and the activity at 1 µM [11] was 45%. The activity at 1 µM [12] was 92%, the activity at 1 µM [13] was 103% and the activity at 1 µM [14] was 105%. The activity at 1 µM [15] was 82%, the activity at 1 µM [16] was 108% and the activity at 1 µM ([17]; FGFR2(h), read-out: Inhibition(%) @ 1 µM RK-019) was 1%. The inhibition at 1 µM ([17]; FGFR2, 1 µM, read-out: inhibition (hit in panel)) was > 90%, the activity at 1 µM [18] was 89% and the activity at 1 µM [19] was 98%. For the same molecule, the activity at 1 µM [20] was 113%, the activity at 1 µM [21] was 96% and the activity at 1 µM [22] was 101%. The activity at 1 µM [23] was 89%, the activity at 1 µM [24] was 34% and the activity at 1 µM [25] was 88%. It also gave an activity at 1 µM [26] of 89%, an activity at 1 µM [27] of 108% and an activity at 1 µM [28] of 108%. The activity at 1 µM [29] was 92%, the activity at 1 µM [30] was 87% and the activity at 1 µM [31] was 106%. It also gave an activity at 1 µM [32] of 112%, an activity at 1 µM [33] of 94% and an activity at 1 µM [34] of 109%. For the same molecule, the activity at 1 µM [35] was 90% and the activity at 1 µM [36] was 109%.
